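Five compound concentrations were applied to cells in 96-well plates for 48 hours; endpoints were derived by simple linear interpolation of the resulting dose-response curve. GI50: concentration for 50% inhibition of growth.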 Calls of active or inactive are those of the source. Cut-off read from the data, not from the text of the source: active = GI50 up to about 1.1 µM and inactive = higher.
Tests used:
Test in all cases: inhibition of tumour cell growth, NCI panel, 48 h
[1] = system: 786-0
[2] = system: A498
[3] = system: A549
[4] = system: ACHN
[5] = system: CAKI-1
[6] = system: CCRF-CEM
[7] = system: COLO 205
[8] = system: DLD-1
[9] = system: DMS-114
[10] = system: DMS-273
[11] = system: EKVX
[12] = system: HCC 2998
[13] = system: HCT-116
[14] = system: HCT-15
[15] = system: HL-60
[16] = system: HOP-18
[17] = system: HOP-62
[18] = system: HOP-92
[19] = system: HT-29
[20] = system: IGROV-1
[21] = system: K562
[22] = system: KM-20L2
[23] = system: KM12
[24] = system: LOX IMVI
[25] = system: LXFL 529
[26] = system: M14
[27] = system: M19-MEL
[28] = system: MOLT-4
[29] = system: Malme-3M
[30] = system: NCI-H23
[31] = system: NCI-H460
[32] = system: NCI-H522
[33] = system: OVCAR-3
[34] = system: OVCAR-4
[35] = system: OVCAR-5
[36] = system: OVCAR-8
[37] = system: RPMI-8226
[38] = system: RXF 393
[39] = system: SF-268
[40] = system: SF-295
[41] = system: SF-539
[42] = system: SK-MEL-28
[43] = system: SK-MEL-2
[44] = system: SK-MEL-5
[45] = system: SK-OV-3
[46] = system: SN12C
[47] = system: SNB-19
[48] = system: SNB-75
[49] = system: SNB-78
[50] = system: SR
[51] = system: SW-620
[52] = system: TK-10
[53] = system: U-251
[54] = system: UACC-257
[55] = system: UACC-62
[56] = system: UO-31
[57] = system: XF498

Cc1ccc2nc(N)[nH]c(=O)c2c1Sc1ccncc1 was tested, and the GI50 [1] was 12.2 µM (inactive), the GI50 [2] was > 78.9 µM (inactive) and the GI50 [3] was 6.73 µM (inactive). The GI50 [4] was 7.35 µM (inactive), the GI50 [5] was 31.6 µM (inactive) and the GI50 [6] was 5.05 µM (inactive). The GI50 [7] was > 92.9 µM (inactive), the GI50 [8] was > 100 µM (inactive) and the GI50 [9] was 12.6 µM (inactive). For the same compound, the GI50 [10] was 37.2 µM (inactive), the GI50 [11] was 49.8 µM (inactive) and the GI50 [12] was 1.36 µM (inactive). The GI50 [13] was 15.5 µM (inactive), the GI50 [14] was greater than 100 µM and the GI50 [15] was 10.9 µM (inactive). For the same compound, the GI50 [16] was > 100 µM (inactive), the GI50 [17] was 5.11 µM (inactive) and the GI50 [18] was 25.9 µM (inactive). For the same compound, the GI50 [19] was > 100 µM (inactive), the GI50 [20] was > 71.6 µM (inactive) and the GI50 [21] was 15.8 µM (inactive). For the same compound, the GI50 [22] was 10 µM (inactive), the GI50 [23] was > 51.6 µM (inactive) and the GI50 [24] was 11.2 µM (inactive). The GI50 [25] was > 59.7 µM (inactive), the GI50 [26] was 8.63 µM (inactive) and the GI50 [27] was > 76 µM (inactive). The GI50 [28] was 6.28 µM (inactive), the GI50 [29] was > 65.2 µM (inactive) and the GI50 [30] was 60.3 µM (inactive). The GI50 [31] was 5.28 µM (inactive), the GI50 [32] was 17.8 µM (inactive) and the GI50 [33] was > 69.2 µM (inactive). The GI50 [34] was 78.2 µM (inactive), the GI50 [35] was 91.2 µM (inactive) and the GI50 [36] was > 31.1 µM (inactive). For the same compound, the GI50 [37] was 23.3 µM (inactive), the GI50 [38] was 55.8 µM (inactive) and the GI50 [39] was 10.5 µM (inactive). The GI50 [40] was 8.07 µM (inactive), the GI50 [41] was 4.78 µM (inactive) and the GI50 [42] was > 92.3 µM (inactive). For the same compound, the GI50 [43] was > 100 µM (inactive), the GI50 [44] was 21.2 µM (inactive) and the GI50 [45] was > 30.6 µM (inactive). The GI50 [46] was 17.5 µM (inactive), the GI50 [47] was > 100 µM (inactive) and the GI50 [48] was > 78.9 µM (inactive). The GI50 [49] was > 100 µM (inactive), the GI50 [50] was 5.07 µM (inactive) and the GI50 [51] was > 100 µM (inactive). The GI50 [52] was > 100 µM (inactive), the GI50 [53] was > 51.1 µM (inactive) and the GI50 [54] was > 100 µM (inactive). The GI50 [55] was 7.4 µM (inactive), the GI50 [56] was 64.1 µM (inactive) and the GI50 [57] was 22.8 µM (inactive).
